Data set [1] has as its target T1, human thyroid hormone receptors TRβ1 (Homo sapiens, UniProt P10828).
T1 construct: made in house; host or cells: Sf9 insect cells (baculovirus)
T1 sequence (P10828 1-461): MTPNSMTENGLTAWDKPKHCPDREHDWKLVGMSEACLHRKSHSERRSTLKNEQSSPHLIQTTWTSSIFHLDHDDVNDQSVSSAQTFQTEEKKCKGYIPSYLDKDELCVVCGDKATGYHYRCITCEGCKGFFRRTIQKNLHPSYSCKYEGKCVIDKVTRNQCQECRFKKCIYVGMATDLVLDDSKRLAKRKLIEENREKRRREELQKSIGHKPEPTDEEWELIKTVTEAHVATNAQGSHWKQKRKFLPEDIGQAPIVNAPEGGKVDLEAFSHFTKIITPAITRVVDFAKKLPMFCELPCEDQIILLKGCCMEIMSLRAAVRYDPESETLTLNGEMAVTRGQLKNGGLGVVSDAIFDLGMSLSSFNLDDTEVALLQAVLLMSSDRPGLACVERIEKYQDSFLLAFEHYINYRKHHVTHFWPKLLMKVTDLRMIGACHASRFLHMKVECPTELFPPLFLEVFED
T1 sequence (P19793 1-462 partner): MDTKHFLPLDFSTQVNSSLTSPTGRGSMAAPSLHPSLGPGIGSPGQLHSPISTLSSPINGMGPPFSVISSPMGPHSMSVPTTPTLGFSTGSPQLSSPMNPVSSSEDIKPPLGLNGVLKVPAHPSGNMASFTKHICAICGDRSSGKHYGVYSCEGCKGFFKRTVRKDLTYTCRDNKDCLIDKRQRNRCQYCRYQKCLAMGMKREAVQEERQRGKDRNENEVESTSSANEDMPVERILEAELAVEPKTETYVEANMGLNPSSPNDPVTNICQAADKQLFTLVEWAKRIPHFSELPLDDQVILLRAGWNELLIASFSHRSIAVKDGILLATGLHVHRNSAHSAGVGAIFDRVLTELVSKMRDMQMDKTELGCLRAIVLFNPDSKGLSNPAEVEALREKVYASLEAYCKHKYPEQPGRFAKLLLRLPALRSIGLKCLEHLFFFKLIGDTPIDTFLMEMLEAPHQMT
The experiment in a line: Receptor binding to TRβ1 (gel filtration and scintillation proximity assay, labeled T3). The note with it: SPA data; read-out: Ki TRβ. For orientation: SEC sorts molecules by how far they enter the pores of the column.

Data set [2] concerns liver mitochondrial glycerol phosphate dehydrogenase (mGPDH) activity. The experiment in a line: Subacute study in normal rats, continuous infusion: liver mGPDH activity. The format is in vivo, rats (Sprague-Dawley). The note with it: continuous infusion 1 mg/kg/day. The text has this: (§1) Efficacy endpoints include serum cholesterol, liver mitochondrial glycerol phosphate dehydrogenase (mGPDH) activity and the expression of relevant liver genes (e.g., the LDL-receptor, apoB, cpt-1, spot14 and apoAI). Safety parameters include heart weight, heart rate, heart mGPDH activity, the expression and key genes involved in cardiac structure and function (e.g., Serca2, HCN2, Kv1.5, MHCα, MHCβ, Alpha1c), and standard plasma chemistry analysis (liver enzymes, electrolytes, creatinine). Endocrine effects are monitored by analysis of serum thyroid stimulating hormone (TSH). [Taylor et al., Mol Pharmacol 52(3): 542-7 (1997); Weitzel et al., Eur J Biochem 268(14):4095-4103 (2001)]
(§2) Methods: mGPDH activity was analyzed in isolated mitochondria using 2-(4-iodophenyl)-3-(4-nitrophenyl)-5-phenyl tetrazolium chloride as the terminal electron acceptor (Gardner R S, Analytical Biochemistry 59:272 (1974)). Commercially available GPDH was used in each assay as a standard (Sigma, St. Louis, Mo.). Changes in levels of mRNA for liver and heart genes are analyzed using reverse transcriptase followed by real-time PCR analysis. The analysis is performed using an iCycler instrument (Biorad) and appropriate primers by means of standard methodology [e.g., Schwab D A et al. (2000) Life Sciences 66: 1683-94]. The amounts of mRNA are normalized to an internal control, typically, cyclophilin. Serum TSH is measured using an enzyme immunoassay (EIA) kit designed for rat TSH (Amersham Pharmacia Biotech, Arlington Heights, Ill.).
(§3) Normal rats (Sprague-Dawley) were maintained on a standard diet. […] The compounds were brought up to an appropriate volume using PBS and BSA to maintain solubility within the pump. The compounds were chemically stable in the excipient at 37° C. for 7 days.
(§4) Values are expressed as percent of control. (Table 4)

For data set [3], the system named is heart mGPDH activity. The experiment in a line: Subacute study in normal rats, continuous infusion: heart mGPDH activity. It is filed as in vivo, rats (Sprague-Dawley). The note with it: continuous infusion 1 mg/kg/day.
From the text: as §1, §2, §3, §4

A short description of data set [4]: Subacute study in normal rats, continuous infusion: heart weight. It is filed as in vivo, rats (Sprague-Dawley). The note with it: continuous infusion 1 mg/kg/day.
From the text: as §1, §3, §4

Data set [5] concerns serum cholesterol. As to the kind of experiment: Subacute study in cholesterol-fed rats, IP: serum cholesterol. It is filed as in vivo. The note with it: IP once-a-day for seven days.
Data set [6] concerns plasma cholesterol. The experiment in a line: Cholesterol lowering in hypercholesterolemic rats. It is filed as in vivo.
Data set [7] deals with thyroid stimulating hormone (TSH). The experiment in a line: Circulating TSH in rats (cholesterol-fed, ZDF). The format is in vivo. The note with it: ZDF rats, 50 mg/kg/d for 28 days. On the procedure: as §2
(§5) Another concern with synthetic thyromimetics is the suppression of the endogenous thyroid axis. Thyroid homeostasis is maintained by the action of thyroid releasing hormone (TRH) and thyroid stimulating hormone (TSH). […] Although this particular side effect has been noted, it has typically been treated with less concern than the cardiac safety issues. […] Therefore previous investigators have measured TSH levels when testing synthetic thyromimetics and have used a 30% decrease of TSH as the denominator in their therapeutic index calculations. […] Therefore, both compounds suppress TSH as doses lower than that required to decrease circulating cholesterol. […] However, 0.2 mg/kg/d of Compound 18 in 28 day treated ZDF rats, decreased TSH levels greater than 90%.

The test system is the same in data set [8]. As to the kind of experiment: Circulating TSH in mice. The format is in vivo. The note with it: 10 mg/kg/d for 77 days.
From the text: as §5

Data set [9] can be described thus: Subacute study in cholesterol-fed rats, IP: heart weight and heart mGPDH activity.
Method: The cholesterol-fed rat is an animal model of hypercholesterolemia generated by feeding the animals a diet with high cholesterol content.
Serum cholesterol values were assessed and the animals randomized into groups for treatment.

Usually Ki stands for the equilibrium dissociation constant of an inhibitor or competing ligand from its target. Turning to `Cc1cc(OCP(=O)(O)O)cc(C)c1Cc1ccc(O)c(C(C)C)c1` [Compound 7, [3,5-dimethyl-4-(4′-hydroxy-3′-iso-propylbenzyl)phenoxy]methylphosphonic acid], the Ki in data set [1] amounted to 3.3 nM. Moreover, the “Liver GPDH” value in [2] is 399% of control. Besides, the “Heart GPDH” value in [3] is 112% of control. Further, in data set [4], the “Heart Weight” value was 108% of control and the cardiac hypertrophy result was “did not cause cardiac hypertrophy”. Besides, the “doses that significantly decreased serum cholesterol” value in [5] fell in the range of 1 to 100 mg/kg/day. Besides, the change in vivo at 0.2 mg/kg/day in data set [6] (Rattus norvegicus, ip, delivered i.p (0.2 mg/kg/d), percentage change from pre-dose cholesterol, read-out: % Cholesterol Lowering) was -41.5%. In data set [6] (another experiment, hypercholesterolemic rats), the “efficacy in lowering cholesterol” value is listed as “efficacious”. For the same compound, in data set [7], the TSH versus vehicle entry is “no statistically significant difference from vehicle”. For the same compound, the “decrease in TSH” value in data set [8] was “no decrease in TSH was observed”. Besides, the cardiac hypertrophy entry in data set [9] (IP once-a-day for seven days) is given as “No cardiac hypertrophy was observed”. Further, the “therapeutic window between efficacy (cholesterol lowering) and toxicity (cardiac hypertrophy, heart GPDH)” value in data set [9] (IP seven days) was 10- to 100 fold. Besides, the “heart GPDH activity” value in data set [9] (IP, 100 mg/kg) was “trend towards increased heart GPDH activity”. The adverse cardiac effects result in data set [9] (IP, any dose) was “No adverse cardiac effects were observed”.

These data come from patent publication US20090028925A1, “Novel Phosphinic Acid-Containing Thyromimetics” (priority 2005, published 2009).
